In US7314747B1, “SMRT co-repressors, transcriptional co-repressors that interact with nuclear hormone receptors” (The Salk Institute for Biological Studies, priority 1995, dated 2008):

Assays:
[1] = molecular target: T1, EcR interaction with E52 or SMRT (Drosophila melanogaster, UniProt P34021); experiment: Yeast two-hybrid assay, E52-EcR or SMRT-EcR interaction; type: cell-based; details: 3 μM ligand
T1 construct: the region corresponding to amino acids 223-878 of EcRB1; expressed in transfected cells; host or cells: Y190 yeast cells
T1 sequence (P34021 223-878): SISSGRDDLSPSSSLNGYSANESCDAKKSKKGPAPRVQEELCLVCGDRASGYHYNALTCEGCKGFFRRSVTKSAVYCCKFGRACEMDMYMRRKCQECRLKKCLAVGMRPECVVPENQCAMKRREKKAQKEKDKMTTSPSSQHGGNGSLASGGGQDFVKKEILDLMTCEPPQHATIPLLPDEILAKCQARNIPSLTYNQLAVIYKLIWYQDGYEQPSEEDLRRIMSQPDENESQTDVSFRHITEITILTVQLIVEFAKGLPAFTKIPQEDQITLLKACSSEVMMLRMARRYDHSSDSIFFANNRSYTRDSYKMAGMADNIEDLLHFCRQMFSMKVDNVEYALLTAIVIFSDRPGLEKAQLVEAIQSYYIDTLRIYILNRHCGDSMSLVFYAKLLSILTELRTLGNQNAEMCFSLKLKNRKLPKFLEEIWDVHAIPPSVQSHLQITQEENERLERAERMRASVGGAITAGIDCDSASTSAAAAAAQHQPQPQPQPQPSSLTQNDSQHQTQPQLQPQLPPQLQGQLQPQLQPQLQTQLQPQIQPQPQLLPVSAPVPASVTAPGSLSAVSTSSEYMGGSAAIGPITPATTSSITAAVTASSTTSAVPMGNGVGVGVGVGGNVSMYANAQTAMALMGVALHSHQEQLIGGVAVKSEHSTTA
Protocol: Transformants were selected onto DO-Leu-Trp-His plates containing 40 mM 3-aminotriazole (Sigma) for 3-4 days. Surviving yeast colonies were picked as primary positives and restreaked on selection plates to isolate single clones. Activation domain plasmids were rescued from the selected positive transformants for further analysis. Each clone was evaluated by testing its potential interaction with several other nuclear receptors using the yeast two-hybrid assays. […] Quantitative liquid assay of β-galactosidase was performed on positive clones 16 hr after treating the yeast cells with no ligand, or with 3 μM ligand.

[2] = molecular target: T2, EcR:USP complex with SMRTER ERID1/ERID2 (Drosophila melanogaster, UniProt P34021); experiment: In vitro GST pull-down of 35S-labeled EcR by GST-ERID1 / GST-ERID2; type: binding; details: 3 μM, when USP is present
T2 construct: made in house; host or cells: EcR and USP: TNT (Promega) coupled transcription-translation; GST fusions: E. coli DH5
T2 sequence (P34021 1-878): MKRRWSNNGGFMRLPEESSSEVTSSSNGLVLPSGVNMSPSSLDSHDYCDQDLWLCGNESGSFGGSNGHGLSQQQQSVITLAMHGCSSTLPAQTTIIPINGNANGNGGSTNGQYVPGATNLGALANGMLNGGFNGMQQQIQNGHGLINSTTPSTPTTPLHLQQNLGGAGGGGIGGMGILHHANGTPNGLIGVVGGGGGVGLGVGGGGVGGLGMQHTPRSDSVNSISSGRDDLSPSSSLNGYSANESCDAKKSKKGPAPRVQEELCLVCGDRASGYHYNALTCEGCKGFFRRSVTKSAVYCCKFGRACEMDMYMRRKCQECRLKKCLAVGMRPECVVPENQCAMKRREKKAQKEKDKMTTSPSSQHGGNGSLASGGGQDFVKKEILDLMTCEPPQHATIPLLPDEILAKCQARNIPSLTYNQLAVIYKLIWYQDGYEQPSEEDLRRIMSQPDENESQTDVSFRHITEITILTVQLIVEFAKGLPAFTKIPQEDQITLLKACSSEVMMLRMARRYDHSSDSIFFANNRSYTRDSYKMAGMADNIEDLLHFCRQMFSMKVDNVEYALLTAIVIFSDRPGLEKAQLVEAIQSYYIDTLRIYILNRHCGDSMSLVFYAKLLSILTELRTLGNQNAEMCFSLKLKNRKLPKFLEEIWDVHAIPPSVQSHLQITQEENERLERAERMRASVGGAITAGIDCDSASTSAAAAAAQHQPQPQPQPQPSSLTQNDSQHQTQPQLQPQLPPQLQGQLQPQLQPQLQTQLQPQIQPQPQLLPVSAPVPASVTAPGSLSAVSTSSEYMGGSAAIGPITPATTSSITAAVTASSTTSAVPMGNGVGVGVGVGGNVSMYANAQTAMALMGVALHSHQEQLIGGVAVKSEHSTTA
T2 sequence (P20153 1-508 partner): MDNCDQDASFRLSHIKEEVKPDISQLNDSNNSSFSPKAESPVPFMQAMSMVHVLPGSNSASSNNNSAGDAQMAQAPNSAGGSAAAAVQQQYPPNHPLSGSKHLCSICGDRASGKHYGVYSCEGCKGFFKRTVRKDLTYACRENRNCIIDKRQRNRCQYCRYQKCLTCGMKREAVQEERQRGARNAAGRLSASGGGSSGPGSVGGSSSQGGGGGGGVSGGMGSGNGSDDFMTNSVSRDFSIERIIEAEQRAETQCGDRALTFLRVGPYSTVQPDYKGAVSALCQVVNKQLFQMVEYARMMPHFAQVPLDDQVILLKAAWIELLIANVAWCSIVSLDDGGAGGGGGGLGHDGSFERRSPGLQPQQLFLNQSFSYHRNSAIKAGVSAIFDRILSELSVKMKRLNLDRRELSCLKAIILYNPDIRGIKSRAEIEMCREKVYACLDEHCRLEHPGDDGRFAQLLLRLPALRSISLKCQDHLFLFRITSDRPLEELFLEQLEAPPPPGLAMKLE
Protocol: Glutathione S-transferase fusion proteins, including GST-X, GST-ERID1 (amino acids 1698-2063 of SEQ ID NO:1), and GST-ERID2 (amino acids 2951-3038 of SEQ ID NO:1), were expressed in E. coli DH5 cells, and extracts were affinity purified by binding to glutathione Sepharose 4B beads. Bound proteins used as affinity matrices in pull-down experiments were first equilibrated with the binding buffer (20 mM HEPES [pH 7.9], 150 mM NaCl, 1 mM EDTA, 4 mM MgCl2, 1 mM DTT, 0.06% NP40, 10% Glycerol, 0.25 mM PMSF, 1 mg BSA). For pull-down assays using GST-ERID1 (amino acids 1698-2063 of SEQ ID NO:1) and GST-ERID2 (amino acids 2951-3038 of SEQ ID NO:1), additional hsp27EcRE (0.05 μg/ml) was added to the binding buffer. In this experiment, […] of 50% GST-protein beads slurry, containing approximately 1 μg of proteins, were incubated with 10 μl of 35S-methionine-labeled proteins in 300 μl of the binding buffer (with or without 3 μM of MurA as indicated) for 30 min at room temperature. After the incubation, beads were washed three times with the binding buffer (with or without ligand) and resuspended in SDS-PAGE sample buffer before loading. After electrophoresis, bound radio-labeled proteins were visualized by autoradiography. […]

## CC(C)CC[C@@H](O)[C@](C)(O)[C@H]1CC[C@@]2(O)C3=CC(=O)[C@]4(O)C[C@@H](O)[C@@H](O)C[C@]4(C)[C@H]3[C@H](O)C[C@]12C [Muristerone A]
[1]
  dissociation of the interaction between E52 and EcR by ligand: not dissociated
  dissociation of the interaction between SMRT and EcR by ligand: not dissociated
[2]
  effect of ligand on GST-ERID/EcR pull-down complex: disrupted
